Experimental data taken from ChEMBL document CHEMBL5360618, “PepScaf: Harnessing Machine Learning with In Vitro Selection toward De Novo Macrocyclic Peptides against IL-17C/IL-17RE Interaction” (J Med Chem, 2023).
Positions of bridges follow the written chain, without caps; N, C: chain ends. Residues, ends and D or L forms follow the SMILES beside them.

biological target: T1, IL17-RE-IL-17C (Homo sapiens, UniProt Q8NFR9+Q9P0M4); experiment: Inhibition of IL-17C/IL-17RE interaction (unknown origin) incubated for 1.5 hrs by ELISA method; assay type: protein-complex assay
T1 sequence (Q9P0M4 whole entry): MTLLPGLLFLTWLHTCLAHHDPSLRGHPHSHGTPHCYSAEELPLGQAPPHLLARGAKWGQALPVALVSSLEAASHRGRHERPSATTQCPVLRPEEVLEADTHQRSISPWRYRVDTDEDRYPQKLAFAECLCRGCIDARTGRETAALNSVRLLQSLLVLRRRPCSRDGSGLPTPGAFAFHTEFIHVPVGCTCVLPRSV
T1 sequence (Q8NFR9 whole entry): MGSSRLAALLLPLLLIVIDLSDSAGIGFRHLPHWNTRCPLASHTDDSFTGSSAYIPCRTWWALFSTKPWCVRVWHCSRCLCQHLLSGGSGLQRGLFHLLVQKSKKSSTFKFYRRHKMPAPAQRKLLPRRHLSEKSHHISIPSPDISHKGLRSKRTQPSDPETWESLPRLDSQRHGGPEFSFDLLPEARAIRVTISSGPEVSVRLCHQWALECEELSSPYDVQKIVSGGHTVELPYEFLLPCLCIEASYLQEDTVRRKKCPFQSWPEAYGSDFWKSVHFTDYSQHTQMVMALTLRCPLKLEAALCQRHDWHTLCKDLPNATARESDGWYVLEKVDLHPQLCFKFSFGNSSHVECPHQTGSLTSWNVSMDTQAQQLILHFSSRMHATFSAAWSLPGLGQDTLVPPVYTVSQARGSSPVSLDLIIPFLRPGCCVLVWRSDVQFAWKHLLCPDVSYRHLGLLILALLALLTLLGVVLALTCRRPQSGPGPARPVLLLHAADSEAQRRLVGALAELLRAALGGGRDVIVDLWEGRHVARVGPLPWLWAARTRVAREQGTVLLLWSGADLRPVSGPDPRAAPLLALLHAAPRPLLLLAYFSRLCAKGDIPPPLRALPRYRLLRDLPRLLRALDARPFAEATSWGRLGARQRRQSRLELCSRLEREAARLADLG

| SMILES | IC50 [nM] |
| --- | --- |
| CC[C@H](C)[C@@H]1NC(=O)[C@H](Cc2c[nH]cn2)NC(=O)[C@H](Cc2ccc(O)cc2)NC(=O)CSC[C@@H](C(=O)NCC(N)=O)NC(=O)CNC(=O)[C@H](CC(C)C)NC(=O)[C@H](CCCNC(=N)N)NC(=O)CNC(=O)[C@H](Cc2ccc(O)cc2)NC(=O)[C@H](CC(C)C)NC(=O)[C@H](CO)NC(=O)[C@H](Cc2ccccc2)NC(=O)[C@H](Cc2ccc(O)cc2)NC(=O)[C@H](Cc2ccc(O)cc2)NC1=O ({CH2CO}-YHIYYFSLYGRLGCG-NH2; thioether N-14) | 3 |
| CC[C@H](C)[C@@H]1NC(=O)[C@H](Cc2c[nH]cn2)NC(=O)[C@H](Cc2ccc(O)cc2)NC(=O)CSC[C@@H](C(=O)NCC(N)=O)NC(=O)CNC(=O)[C@H](CC(C)C)NC(=O)[C@H](CC(N)=O)NC(=O)CNC(=O)[C@H](Cc2ccc(O)cc2)NC(=O)[C@H](CC(C)C)NC(=O)[C@H]([C@@H](C)CC)NC(=O)[C@H](CCCNC(=N)N)NC(=O)[C@H](Cc2ccc(O)cc2)NC(=O)[C@H](Cc2ccc(O)cc2)NC1=O ({CH2CO}-YHIYYRILYGNLGCG-NH2; thioether N-14) | 4.5 |
| CC[C@H](C)[C@@H]1NC(=O)[C@H](Cc2c[nH]cn2)NC(=O)[C@H](Cc2ccc(O)cc2)NC(=O)CSC[C@@H](C(=O)NCC(N)=O)NC(=O)CNC(=O)[C@H](CC(C)C)NC(=O)[C@H](CCCCN)NC(=O)[C@H](CCC(N)=O)NC(=O)[C@H](Cc2ccc(O)cc2)NC(=O)[C@H]([C@@H](C)CC)NC(=O)[C@H](CCC(N)=O)NC(=O)[C@H](CCCNC(=N)N)NC(=O)[C@H](Cc2ccc(O)cc2)NC(=O)[C@H](Cc2ccc(O)cc2)NC1=O ({CH2CO}-YHIYYRQIYQKLGCG-NH2; thioether N-14) | 328 |
| CC[C@H](C)[C@@H]1NC(=O)[C@H](Cc2c[nH]cn2)NC(=O)[C@H](Cc2ccc(O)cc2)NC(=O)CSC[C@@H](C(=O)NCC(N)=O)NC(=O)CNC(=O)[C@H](CC(C)C)NC(=O)[C@H](CO)NC(=O)CNC(=O)[C@H](Cc2ccc(O)cc2)NC(=O)[C@H](CC(C)C)NC(=O)[C@H](CO)NC(=O)[C@H](CO)NC(=O)[C@H](Cc2ccc(O)cc2)NC(=O)[C@H](Cc2ccc(O)cc2)NC1=O ({CH2CO}-YHIYYSSLYGSLGCG-NH2; thioether N-14) | 7 |
| CC(C)C[C@@H]1NC(=O)[C@H](CC(N)=O)NC(=O)CNC(=O)[C@H](Cc2ccc(O)cc2)NC(=O)[C@H](CC(C)C)NC(=O)[C@H](CO)NC(=O)[C@H](C)NC(=O)[C@H](Cc2ccc(O)cc2)NC(=O)[C@H](Cc2ccc(O)cc2)NC(=O)[C@H](CC(C)C)NC(=O)[C@H](Cc2c[nH]cn2)NC(=O)[C@H](Cc2ccc(O)cc2)NC(=O)CSC[C@@H](C(=O)NCC(N)=O)NC(=O)CNC1=O ({CH2CO}-YHLYYASLYGNLGCG-NH2; thioether N-14) | 9.6 |
| CC(C)C[C@@H]1NC(=O)[C@H](CC(N)=O)NC(=O)CNC(=O)[C@H](Cc2ccc(O)cc2)NC(=O)[C@H](CC(C)C)NC(=O)[C@H](CC(C)C)NC(=O)[C@H](CCCNC(=N)N)NC(=O)[C@H](Cc2ccc(O)cc2)NC(=O)[C@H](Cc2ccc(O)cc2)NC(=O)[C@H](CC(C)C)NC(=O)[C@H](Cc2c[nH]cn2)NC(=O)[C@H](Cc2ccc(O)cc2)NC(=O)CSC[C@@H](C(=O)NCC(N)=O)NC(=O)CNC1=O ({CH2CO}-YHLYYRLLYGNLGCG-NH2; thioether N-14) | 48.8 |
| CC(C)C[C@@H]1NC(=O)[C@H](CC(N)=O)NC(=O)CNC(=O)[C@H](Cc2ccc(O)cc2)NC(=O)[C@H](CC(C)C)NC(=O)[C@H](CO)NC(=O)[C@H](C(C)C)NC(=O)[C@H](Cc2ccc(O)cc2)NC(=O)[C@H](Cc2ccc(O)cc2)NC(=O)[C@H](CC(C)C)NC(=O)[C@H](Cc2c[nH]cn2)NC(=O)[C@H](Cc2ccc(O)cc2)NC(=O)CSC[C@@H](C(=O)NCC(N)=O)NC(=O)CNC1=O ({CH2CO}-YHLYYVSLYGNLGCG-NH2; thioether N-14) | 6.4 |
| CC(C)C[C@@H]1NC(=O)[C@H](CO)NC(=O)CNC(=O)[C@H](Cc2ccc(O)cc2)NC(=O)[C@H](CC(C)C)NC(=O)[C@H](CO)NC(=O)[C@H](C(C)C)NC(=O)[C@H](Cc2ccc(O)cc2)NC(=O)[C@H](Cc2ccc(O)cc2)NC(=O)[C@H](CC(C)C)NC(=O)[C@H](Cc2c[nH]cn2)NC(=O)[C@H](Cc2ccc(O)cc2)NC(=O)CSC[C@@H](C(=O)NCC(N)=O)NC(=O)CNC1=O ({CH2CO}-YHLYYVSLYGSLGCG-NH2; thioether N-14) | 12 |
| CC(C)C[C@@H]1NC(=O)[C@H](CC(N)=O)NC(=O)CNC(=O)[C@H](Cc2ccc(O)cc2)NC(=O)[C@H](CC(C)C)NC(=O)[C@H](CO)NC(=O)[C@H](Cc2ccc(O)cc2)NC(=O)[C@H](Cc2ccc(O)cc2)NC(=O)[C@H](Cc2ccc(O)cc2)NC(=O)[C@H](CC(C)C)NC(=O)[C@H](Cc2c[nH]cn2)NC(=O)[C@H](Cc2ccc(O)cc2)NC(=O)CSC[C@@H](C(=O)NCC(N)=O)NC(=O)CNC1=O ({CH2CO}-YHLYYYSLYGNLGCG-NH2; thioether N-14) | 5.5 |
| CC(C)C[C@@H]1NC(=O)[C@H](CC(N)=O)NC(=O)CNC(=O)[C@H](Cc2ccc(O)cc2)NC(=O)[C@H](CC(C)C)NC(=O)[C@H](CC(C)C)NC(=O)[C@H](CCCNC(=N)N)NC(=O)[C@H](Cc2ccc(O)cc2)NC(=O)[C@H](Cc2ccc(O)cc2)NC(=O)[C@H](CCC(N)=O)NC(=O)[C@H](Cc2c[nH]cn2)NC(=O)[C@H](Cc2ccc(O)cc2)NC(=O)CSC[C@@H](C(=O)NCC(N)=O)NC(=O)CNC1=O ({CH2CO}-YHQYYRLLYGNLGCG-NH2; thioether N-14) | 26.4 |

Second part, the compound after the results:

| IC50 [nM] | SMILES |
| --- | --- |
| 6.3 | CC[C@H](C)[C@@H]1NC(=O)[C@H](Cc2c[nH]cn2)NC(=O)[C@H](Cc2ccc(O)cc2)NC(=O)CSC[C@@H](C(=O)NCC(N)=O)NC(=O)CNC(=O)[C@H](CC(C)C)NC(=O)[C@H](CO)NC(=O)CNC(=O)[C@H](Cc2ccc(O)cc2)NC(=O)[C@H](CC(C)C)NC(=O)[C@H]([C@@H](C)CC)NC(=O)[C@H](CCCNC(=N)N)NC(=O)[C@H](Cc2ccc(O)cc2)NC(=O)[C@H](Cc2ccc(O)cc2)NC1=O ({CH2CO}-YHIYYRILYGSLGCG-NH2; thioether N-14) |
| 1.7 | CC[C@H](C)[C@@H]1NC(=O)[C@H](Cc2c[nH]cn2)NC(=O)[C@H](Cc2ccc(O)cc2)NC(=O)CSC[C@@H](C(=O)NCC(N)=O)NC(=O)CNC(=O)[C@H](CC(C)C)NC(=O)[C@H](CC(N)=O)NC(=O)CNC(=O)[C@H](Cc2ccc(O)cc2)NC(=O)[C@H](CC(C)C)NC(=O)[C@H](CO)NC(=O)[C@H](CCCNC(=N)N)NC(=O)[C@H](Cc2ccc(O)cc2)NC(=O)[C@H](Cc2ccc(O)cc2)NC1=O ({CH2CO}-YHIYYRSLYGNLGCG-NH2; thioether N-14) |
| 11.3 | CC[C@H](C)[C@@H]1NC(=O)[C@H](CCCNC(=N)N)NC(=O)[C@H](Cc2ccc(O)cc2)NC(=O)[C@H](Cc2ccc(O)cc2)NC(=O)[C@H](CC(C)C)NC(=O)[C@H](Cc2c[nH]cn2)NC(=O)[C@H](Cc2ccc(O)cc2)NC(=O)CSC[C@@H](C(=O)NCC(N)=O)NC(=O)CNC(=O)[C@H](CC(C)C)NC(=O)[C@H](CC(N)=O)NC(=O)CNC(=O)[C@H](Cc2ccc(O)cc2)NC(=O)[C@H](CC(C)C)NC1=O ({CH2CO}-YHLYYRILYGNLGCG-NH2; thioether N-14) |
| > 30000 | CC[C@H](C)[C@@H]1NC(=O)[C@H](CCCNC(=N)N)NC(=O)[C@H](Cc2ccc(O)cc2)NC(=O)[C@H](Cc2ccc(O)cc2)NC(=O)[C@@H]2CCCN2C(=O)[C@H](Cc2c[nH]cn2)NC(=O)[C@H](Cc2ccc(O)cc2)NC(=O)CSC[C@@H](C(=O)NCC(N)=O)NC(=O)CNC(=O)[C@H](CC(C)C)NC(=O)[C@H](CCC(=O)O)NC(=O)CNC(=O)[C@H](Cc2ccc(O)cc2)NC(=O)[C@H](CC(C)C)NC1=O ({CH2CO}-YHPYYRILYGELGCG-NH2; thioether N-14) |
